# According to patent US20250109140A1, “5-[5-(PIPERIDIN-4-YL)THIENO[3,2-C]PYRAZOL-2-YL]INDAZOLE DERIVATIVES AND RELATED COMPOUNDS AS MODULATORS FOR SPLICING NUCLEIC ACIDS AND FOR THE TREATMENT OF PROLIFERATIVE DISEASES” (REMIX THERAPUTICS INC., priority 2022, published 2025):
# Structures can show the parent of a compound that is named as a salt. Where two headings read alike, the source gives them in different places.
# Columns and labels:
# HTT mRNA = experiment: Splicing RT-qPCR assay, HTT canonical (CJ) and alternative (AJ) junction mRNA; format: cell-based; conditions: Homo sapiens; for EC50: AC50 = 50% response in AJ mRNA increase
# Procedure, shortened: (§1)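 Junction-specific RT-qPCR read-out: CJ marks canonical transcript, AJ marks alternative-exon inclusion, each normalized to GAPDH, GUSB or PPIA. Cells (A673 or K562) were dosed for 24 h with compound up to 10 uM final in 11 3-fold steps. RQ from 2^(−ΔΔCt) against DMSO became percentage response.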
# MYB mRNA = experiment: Splicing RT-qPCR assay, MYB canonical (CJ) and alternative (AJ) junction mRNA; format: cell-based; conditions: Homo sapiens; for EC50: AC50 = 50% response in AJ mRNA increase
# Procedure, shortened: as §1
# SMN2 mRNA = experiment: Splicing RT-qPCR gene panel, SMN2 canonical junction (CJ) mRNA; format: cell-based; conditions: Homo sapiens; Table 8; larger gene panel, decrease in CJ mRNA levels
# Procedure, shortened: as §1
# Target C mRNA = experiment: Splicing RT-qPCR gene panel, Target C canonical junction (CJ) mRNA; format: cell-based; conditions: Homo sapiens; Table 8; larger gene panel, decrease in CJ mRNA levels
# Procedure, shortened: as §1
# HiBiT-tagged MYB protein = experiment: HiBiT protein abundance assay, MYB (K562 HiBiT knock-in cells); format: cell-based, human; conditions: 24 hours treatment
# Experimental: (§2) Compounds described herein were used to screen for effects on quantitative protein abundance using a HiBit assay system (Promega). Quantitative protein abundance was determined by measuring the protein levels of HiBit-tagged protein targets expressed in cell culture via luminescence using the Nano-Glo HiBiT Lytic Detection System, which uses a split complementation assay format to reconstitute NanoBiT enzyme to generate a luminescent signal. A protein abundance assay was developed such that endogenous protein targets could be modified with the HiBiT peptide tag and their abundance could be assessed after compound treatment. Briefly, K562 cell lines containing a HiBiT-modification were treated with various compounds described herein (e.g., compounds of Formulas (I), or (II)). After treatment for 24 hours, the protein abundance of a specific target was determined by measuring luminescence.
# (§3) Cells were maintained in IMDM with 10% FBS. Before the assay, cells were diluted with […] growth media (IMDM+[…] media) and were seeded in a 384-well plate at a density of 10000 cells/well (for each cell line listed in Table 6). Each compound was prepared as a 10-point 3-fold serial dilution in DMSO with the top dose at a final concentration of […] in the well. Unmodified K562 cells were added at the previously specified density with DMSO to serve as an assay baseline and positive control (PC) and DMSO only with the respective modified cell lines was added to the negative control (NC) columns. Final DMSO concentration was kept at or below 0.25%. Treated cell plates were placed in an incubator at 37° C. with […] for 24 hours. After 24 hours, 25 μL of Complete HiflitLytic reagent was added to each well at room temperature (e.g. one plate requiring 10 mL Lytic Buffer, 100 μL LgBiT Protein, 200 μL Lytic Substrate), shaken for 5 minutes at 600 RPM, then left to sit for 10 minutes for signal to stabilize before reading on a Spark Cyto plate reader (Tecan) with a 500 ms measurement time.
# (§4) To determine compound effects on protein abundance of each target in Table 6, the percent response for each respective cell line was calculated at each compound concentration as follows:
# (§5) For the normalized response at each concentration, a four-parameter logistical regression was fit to the data and the response was interpolated at the 50% value to determine a concentration for protein abundance at 50% (IC50) the untreated control.
# HiBiT-tagged HTT protein = experiment: HiBiT protein abundance assay, HTT (K562 HiBiT knock-in cells); format: cell-based, human; conditions: 24 hours treatment
# Experimental: as §2, §3, §4, §5
# [1] = system: K562 (human chronic myelogenous leukemia) cells; experiment: Cell viability, Cell Titer Glo 2.0 assay, K562 cells; format: cell-based; conditions: 72 hours
# Experimental: Compounds described herein were screened for toxicity in K562 (human chronic myelogenous leukemia) and SH-SY5Y (human neuroblastoma) cells using a Cell Titer Glo 2.0 assay.
# Cells were plated at 500 cells/well (K562 cells) in 45 μL of IMDM supplemented with 10% FBS in a 384-well opaque plate. Wells containing only medium were used as a blank control. Test compounds (e.g., compounds of Formula (I), (III), (IV), (V), or (VI)) were first serially diluted in DMSO then diluted 1:100 with IMDM+10% FBS. The final concentration of DMSO was 0.1% in each well. The cells were incubated for 72 hours at 37° C. and 5% CO2 before assaying with Cell Titer Glo 2.0 reagent.
# Target C = experiment: HiBiT protein abundance assay, Target C (K562 HiBiT knock-in cells); format: cell-based, human; conditions: 24 hours treatment
# Experimental: • Promega Nano-Glo HiBiT Lytic Detection System (cat #N3030) • Corning 384-well TC-treated microplates (cat #3570) • Synthego Engineered Cells Knock-In Clones
# as §3, §4, §5
# [2] = Table 7, RT-qPCR, A673 or K562 cells, 24 hours treatment
# [3] = Table 7, IC50 = 50% response in CJ mRNA decrease, RT-qPCR, A673 or K562 cells, 24 hours treatment, read-out: HTT CJ
# [4] = Table 8, larger gene panel, decrease in CJ mRNA levels, read-out: HTT CJ IC50
# [5] = Table 7, IC50 = 50% response in CJ mRNA decrease, RT-qPCR, A673 or K562 cells, 24 hours treatment, read-out: MYB CJ
# [6] = Table 8, larger gene panel, decrease in CJ mRNA levels, read-out: MYB CJ IC50
Structure (SMILES),EC50 (HTT mRNA; [2]),IC50 (HTT mRNA; [3]),IC50 (HTT mRNA; [4]),EC50 (MYB mRNA; [2]),IC50 (MYB mRNA; [5]),IC50 (MYB mRNA; [6]),IC50 (SMN2 mRNA),IC50 (Target C mRNA),IC50 (HiBiT-tagged MYB protein),IC50 (HiBiT-tagged HTT protein),IC50 [1],IC50 (Target C)
"Cc1cn2nc(-c3cc4cn([C@H]5CCNC[C@@H]5F)nc4s3)cc(C)c2n1 (mixture of isomers) [Compound 212, 5-(2,8-dimethylimidazo[1,2-b]pyridazin-6-yl)-2-((1:1 mixture of 3S,4S and 3R,4R)-3-fluoropiperidin-4-yl)-2H-thieno[2,3-c]pyrazole]",1 to 10 µM,1 to 10 µM,1 to 10 µM,> 10 µM,1 to 10 µM,> 10 µM,0.1 to 1 µM,> 10 µM,> 10 µM,1 to 10 µM,1 to 10 µM,> 10 µM
"Cc1cn2nc(-n3cc4sc(C5CCNCC5)cc4n3)cc(C)c2n1 [Compound 101, 4-(2-[2,8-dimethylimidazo[1,2-b]pyridazin-6-yl]thieno[3,2-c]pyrazol-5-yl)piperidine]",0.1 to 1 µM,< 0.1 µM,0.1 to 1 µM,0.1 to 1 µM,0.1 to 1 µM,0.1 to 1 µM,< 0.1 µM,< 0.1 µM,0.1 to 1 µM,< 0.1 µM,0.1 to 1 µM,< 0.1 µM
"Cn1cc2cc(-n3cc4cc(C5CCNCC5)sc4n3)cc(F)c2n1 [Compound 104, 7-fluoro-2-methyl-5-[5-(piperidin-4-yl)thieno[2,3-c]pyrazol-2-yl]indazole]",0.1 to 1 µM,< 0.1 µM,0.1 to 1 µM,0.1 to 1 µM,0.1 to 1 µM,0.1 to 1 µM,< 0.1 µM,0.1 to 1 µM,0.1 to 1 µM,< 0.1 µM,0.1 to 1 µM,0.1 to 1 µM
"Cn1cc2cc(-n3cc4sc(C5CCNCC5)cc4n3)cc(F)c2n1 [Compound 105, 7-fluoro-2-methyl-5-[5-(piperidin-4-yl)thieno[3,2-c]pyrazol-2-yl]indazole]",0.1 to 1 µM,0.1 to 1 µM,0.1 to 1 µM,1 to 10 µM,1 to 10 µM,1 to 10 µM,0.1 to 1 µM,1 to 10 µM,1 to 10 µM,0.1 to 1 µM,1 to 10 µM,1 to 10 µM
"Cn1cc2cc(-c3cc4cn(C5CCNCC5)nc4s3)cc(F)c2n1 [Compound 122, 7-fluoro-2-methyl-5-[2-(piperidin-4-yl)thieno[2,3-c]pyrazol-5-yl]indazole]",< 0.1 µM,< 0.1 µM,< 0.1 µM,0.1 to 1 µM,< 0.1 µM,0.1 to 1 µM,< 0.1 µM,< 0.1 µM,< 0.1 µM,< 0.1 µM,< 0.1 µM,< 0.1 µM
"CN(c1cc2nn(-c3ccc(-c4cn[nH]c4)cc3O)cc2s1)[C@@H]1C[C@H]2CC[C@@H](C1)N2 [Compound 148, 2-[5-[(1R,3R,5S)-8-azabicyclo[3.2.1]octan-3-yl(methyl)amino]thieno[3,2-c]pyrazol-2-yl]-5-(1H-pyrazol-4-yl)phenol]",1 to 10 µM,1 to 10 µM,1 to 10 µM,1 to 10 µM,> 10 µM,1 to 10 µM,1 to 10 µM,> 10 µM,1 to 10 µM,1 to 10 µM,1 to 10 µM,1 to 10 µM
"CCN1CCC(n2cc3cc(-c4cc(F)c5nn(C)cc5c4)sc3n2)CC1 [Compound 149, 5-[2-(1-ethylpiperidin-4-yl)thieno[2,3-c]pyrazol-5-yl]-7-fluoro-2-methylindazole]",< 0.1 µM,< 0.1 µM,< 0.1 µM,0.1 to 1 µM,0.1 to 1 µM,0.1 to 1 µM,< 0.1 µM,0.1 to 1 µM,0.1 to 1 µM,< 0.1 µM,0.1 to 1 µM,0.1 to 1 µM
"CN1CCC(n2cc3cc(-c4cc(F)c5nn(C)cc5c4)sc3n2)CC1 [Compound 150, 7-fluoro-2-methyl-5-[2-(1-methylpiperidin-4-yl)thieno[2,3-c]pyrazol-5-yl]indazole]",0.1 to 1 µM,0.1 to 1 µM,0.1 to 1 µM,0.1 to 1 µM,0.1 to 1 µM,0.1 to 1 µM,< 0.1 µM,0.1 to 1 µM,0.1 to 1 µM,< 0.1 µM,0.1 to 1 µM,0.1 to 1 µM
Cc1cn2cc(-n3cc4cc(C5CCNCC5)sc4n3)cc(C)c2n1 [Compound 155],0.1 to 1 µM,0.1 to 1 µM,0.1 to 1 µM,1 to 10 µM,1 to 10 µM,1 to 10 µM,< 0.1 µM,1 to 10 µM,0.1 to 1 µM,< 0.1 µM,0.1 to 1 µM,0.1 to 1 µM
Cc1cn2cc(-n3cc4cc(C5CCNCC5)sc4n3)cc(F)c2n1 [Compound 156],0.1 to 1 µM,< 0.1 µM,0.1 to 1 µM,1 to 10 µM,0.1 to 1 µM,1 to 10 µM,< 0.1 µM,0.1 to 1 µM,0.1 to 1 µM,< 0.1 µM,0.1 to 1 µM,< 0.1 µM
Cc1nc2c(F)cc(-n3cc4cc(C5CCNCC5)sc4n3)cc2o1 [Compound 157],0.1 to 1 µM,0.1 to 1 µM,0.1 to 1 µM,0.1 to 1 µM,1 to 10 µM,0.1 to 1 µM,< 0.1 µM,0.1 to 1 µM,0.1 to 1 µM,< 0.1 µM,0.1 to 1 µM,< 0.1 µM
Cc1cn2cc(-n3cc4cc(C5CCNCC5)sc4n3)ncc2n1 [Compound 158],0.1 to 1 µM,0.1 to 1 µM,0.1 to 1 µM,0.1 to 1 µM,0.1 to 1 µM,0.1 to 1 µM,0.1 to 1 µM,0.1 to 1 µM,0.1 to 1 µM,0.1 to 1 µM,0.1 to 1 µM,0.1 to 1 µM
"Cn1cc2cc(-c3cc4cn([C@@H]5CCNC5)nc4s3)cc(F)c2n1 [Compound 160, (R)-5-(7-fluoro-2-methyl-2H-indazol-5-yl)-2-(pyrrolidin-3-yl)-2H-thieno[2,3-c]pyrazole hydrochloride]",1 to 10 µM,1 to 10 µM,1 to 10 µM,1 to 10 µM,1 to 10 µM,1 to 10 µM,1 to 10 µM,> 10 µM,1 to 10 µM,1 to 10 µM,1 to 10 µM,> 10 µM
"Cn1cc2cc(-c3cc4cn(C5CCOCC5)nc4s3)cc(F)c2n1 [Compound 161, 7-fluoro-2-methyl-5-[2-(oxan-4-yl)thieno[2,3-c]pyrazol-5-yl]indazole]",> 10 µM,> 10 µM,> 10 µM,> 10 µM,> 10 µM,> 10 µM,> 10 µM,> 10 µM,> 10 µM,> 10 µM,> 10 µM,> 10 µM
